# Test results: US6096725A, “Methods of using αGal oligosaccharides as immune system targeting agents” (Neose Technologies, Inc., priority 1997, dated 2000)
# Like-named read-outs stand apart in the source and are kept apart here.
# Test: Pharmacokinetics after 15 minute intravenous bolus in baboons
# Assay type: in vivo, baboon
# Conditions: for clearance / half-life / Vd: baboon, plasma, iv, 500 umol/kg, 0.5 mMol/Kg 15 minute i.v. bolus; for Vd: read-out: Volume of Distribution
# Description: The pharmacokinetics of the αGal trisaccharide compositions and the αGal pentasaccharide compositions were determined by delivering to one baboon by 15 minute intravenous bolus, 0.5 mMol/Kg of one oligosaccharide and 48 hours later, delivering 0.5 mmol/Kg of the second oligosaccharide, and for a second baboon, delivering the oligosaccharides according to the same procedure, but in the reverse order.
# Three Baboons were outfitted with indwelling venous and arterial catheters to the femoral vessels, and held in place with the aid of a jacket. Oligosaccharides were administered through the catheter in a 15 minute continuous infusion.
# The clearance is used to calculate the infusion rate needed to maintain a desired drug concentration. The half-life describes how quickly concentrations diminish with time. Mathematical formulations known in the art were applied to estimate the pharmacokinetic parameters of the αGal trisaccharide and αGal pentasaccharide. […] Compared to other drugs, the volumes of distribution of these oligosaccharides are low, less than the extravascular water volume (<400 mL/kg). The clearance is typical of compounds eliminated by GFR (glomerular filtration rate).
# [1] = to attain 0.5 mM steady state serum concentration
# [2] = to attain 1.0 mM steady state serum concentration
# [3] = to attain 2.0 mM steady state serum concentration
smiles,measurement,setting,value
"CC(=O)N[C@H]1[C@H](O[C@H]2[C@@H](O)[C@@H](CO)O[C@@H](O[C@H]3[C@H](O)[C@@H](O)C(O)O[C@@H]3CO)[C@@H]2O)O[C@H](CO)[C@@H](O[C@@H]2O[C@H](CO)[C@H](O)[C@H](O[C@H]3O[C@H](CO)[C@H](O)[C@H](O)[C@H]3O)[C@H]2O)[C@@H]1O (stereo partly drawn) [αGal pentasaccharide, Galα1-3Galβ1-4GlcNAcβ1-3Galβ1-4Glc]",clearance,baboon 1003,2.93 mL/min/kg
same,half-life,baboon 1003,47.3 min
same,Vd,baboon 1003,0.199 L/kg
same,clearance,baboon 1015,3.97 mL/min/kg
same,half-life,baboon 1015,40.2 min
same,Vd,baboon 1015,0.23 L/kg
same,"Calculated continuous infusion, total amount",[1],1.44 Kg/14 days
same,Calculated loading dose,[1],4.12 g/20 Kg baboon
same,Calculated loading dose (bolus or 15 min infusion),[1],206 mg/kg
same,"Calculated continuous infusion, total amount",[2],2.88 Kg/14 days
same,Calculated loading dose,[2],8.24 g/20 Kg baboon
same,Calculated loading dose (bolus or 15 min infusion),[2],412 mg/kg
same,"Calculated continuous infusion, total amount",[3],5.74 Kg/14 days
same,Calculated loading dose,[3],16.48 g/20 Kg baboon
same,Calculated loading dose (bolus or 15 min infusion),[3],824 mg/kg
